Assay results reported in PubChem BioAssay AID328 (DTP/NCI, 2004).
“And” between values parts separate entries of the source, which are not always exact repeats. Equal values may be shown once. Toxic doses and inconclusive results are not listed. How the source made its calls: active means survival T/C of 150% or more; inactive means T/C below 125% in these data.

System: BDF1 mice, P388 leukemia ip, median survival T/C
Test: NCI In Vivo Anticancer Drug Screen. Data for tumor model P388 Leukemia (intraperitoneal) in B6D2F1 (BDF1) mice
Settings: endpoint: median survival time, higher = longer survival
How it was run: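 Reported as T/C, where T is the survival measurement in dosed animals and C the same measurement in vehicle controls.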

[1] = dose: 12.5 mg/kg/injection, schedule: Q01DX009 (ip), vehicle: saline with Tween-80
[2] = dose: 25.0 mg/kg/injection, schedule: Q01DX009 (ip), vehicle: saline with Tween-80
[3] = dose: 50.0 mg/kg/injection, schedule: Q01DX009 (ip), vehicle: saline with Tween-80
[4] = dose: 6.25 mg/kg/injection, schedule: Q01DX009 (ip), vehicle: saline with Tween-80
[5] = dose: 12.5 mg/kg/injection, schedule: Q04DX003 (ip), vehicle: saline with Tween-80
[6] = dose: 25.0 mg/kg/injection, schedule: Q04DX003 (ip), vehicle: saline with Tween-80
[7] = dose: 50.0 mg/kg/injection, schedule: Q04DX003 (ip), vehicle: saline with Tween-80
[8] = dose: 100.0 mg/kg/injection, schedule: Q01DX009 (ip), vehicle: saline with Tween-80
[9] = dose: 100.0 mg/kg/injection, schedule: Q04DX003 (ip), vehicle: saline with Tween-80
[10] = dose: 6.25 mg/kg/injection, schedule: Q01DX009 (ip), vehicle: saline
[11] = dose: 12.5 mg/kg/injection, schedule: Q01DX009 (ip), vehicle: saline
[12] = dose: 25.0 mg/kg/injection, schedule: Q01DX009 (ip), vehicle: saline
[13] = dose: 100.0 mg/kg/injection, schedule: Q04DX003 (ip), vehicle: saline sonified
[14] = dose: 200.0 mg/kg/injection, schedule: Q04DX003 (ip), vehicle: saline sonified
[15] = dose: 400.0 mg/kg/injection, schedule: Q04DX003 (ip), vehicle: saline sonified
[16] = dose: 200.0 mg/kg/injection, schedule: Q04DX003 (ip), vehicle: saline with Tween-80

Measured: T/C

CCC/C=C/C=C/C1CC(O)C(O)C(=O)C1C=O (stereo not drawn)
inactive: [1] 108 % of control | [2] 100 % of control | [3] 101 % of control

CC(C)(C)OC(=O)NOc1ccc([N+](=O)[O-])cc1[N+](=O)[O-]
inactive: dose: 3.12 mg/kg/injection, schedule: Q01DX009 (ip), vehicle: saline with Tween-80 117 % of control | [4] 90 % of control | dose: 6.25 mg/kg/injection, schedule: Q04DX003 (ip), vehicle: saline with Tween-80 100 % of control | [1] 106 % of control and 93 % of control | [5] 104 % of control | [2] 90 % of control and 96 % of control | [6] 97 % of control | [3] 93 % of control | [7] 97 % of control | [8] 100 % of control

O=C(Nc1ccc([N+](=O)[O-])cc1)OCC#CC#CCOC(=O)Nc1ccc([N+](=O)[O-])cc1
inactive: dose: 50.0 mg/kg/injection, schedule: Q01DX009 (ip), vehicle: Klucel (hydroxypropylcellulose) (HPC) 100 % of control | dose: 100.0 mg/kg/injection, schedule: Q01DX009 (ip), vehicle: Klucel (hydroxypropylcellulose) (HPC) 100 % of control

Nc1ncnc2c1ncn2C1OC(CO)CC1O (stereo not drawn)
inactive: dose: 4.68 mg/kg/injection, schedule: Q01DX009 (ip), vehicle: Klucel (hydroxypropylcellulose) (HPC) 108 % of control | dose: 9.37 mg/kg/injection, schedule: Q01DX009 (ip), vehicle: Klucel (hydroxypropylcellulose) (HPC) 106 % of control | dose: 18.75 mg/kg/injection, schedule: Q01DX009 (ip), vehicle: Klucel (hydroxypropylcellulose) (HPC) 106 % of control | dose: 37.5 mg/kg/injection, schedule: Q01DX009 (ip), vehicle: Klucel (hydroxypropylcellulose) (HPC) 111 % of control | dose: 75.0 mg/kg/injection, schedule: Q01DX009 (ip), vehicle: Klucel (hydroxypropylcellulose) (HPC) 106 % of control | dose: 150.0 mg/kg/injection, schedule: Q01DX009 (ip), vehicle: Klucel (hydroxypropylcellulose) (HPC) 106 % of control

COc1ccc2c(c1)CC(=CO)CC2=O.COc1ccc2c(c1)CC/C(=C/O)C2=O.[Cu]
inactive: [6] 100 % of control | [7] 110 % of control | [9] 90 % of control

CCCCCCCCCCCCCC(=O)[O][Sn]([CH2]CCC)([CH2]CCC)[O]C(=O)CCCCCCCCCCCCC
inactive: dose: 0.78 mg/kg/injection, schedule: Q04DX003 (ip), vehicle: other 104 % of control | dose: 1.56 mg/kg/injection, schedule: Q04DX003 (ip), vehicle: other 109 % of control | dose: 3.13 mg/kg/injection, schedule: Q04DX003 (ip), vehicle: other 113 % of control

O=S(=O)(NCCO)c1ccc(Cl)cc1
inactive: dose: 100.0 mg/kg/injection, schedule: Q01DX001 (ip), vehicle: Klucel (hydroxypropylcellulose) (HPC) 100 % of control | dose: 200.0 mg/kg/injection, schedule: Q01DX001 (ip), vehicle: Klucel (hydroxypropylcellulose) (HPC) 100 % of control | dose: 400.0 mg/kg/injection, schedule: Q01DX001 (ip), vehicle: Klucel (hydroxypropylcellulose) (HPC) 100 % of control

CC1C[N+](C)=C2CCCCC2=C1N (stereo not drawn)
inactive: [10] 95 % of control | [11] 100 % of control | [12] 86 % of control

NCCC(O)C(=O)NC1CC(N)C(OC2OC(CO)C(O)C(O)C2N)C(OC2OC(CO)C(O)C2O)C1O (stereo not drawn)
inactive: [11] 109 % of control | [12] 109 % of control | dose: 50.0 mg/kg/injection, schedule: Q01DX009 (ip), vehicle: saline 100 % of control

CC1(C#N)CC(C#N)Nc2ccccc2N1 (stereo not drawn)
inactive: dose: 100.0 mg/kg/injection, schedule: Q01DX001 (ip), vehicle: saline 104 % of control | dose: 200.0 mg/kg/injection, schedule: Q01DX001 (ip), vehicle: saline 91 % of control | dose: 400.0 mg/kg/injection, schedule: Q01DX001 (ip), vehicle: saline 100 % of control

CN1CCC(OC(N)=O)CC1
inactive: dose: 100.0 mg/kg/injection, schedule: Q01DX009 (ip), vehicle: saline 109 % of control | dose: 100.0 mg/kg/injection, schedule: Q04DX003 (ip), vehicle: alcohol 100 % of control | [13] 100 % of control | dose: 132.0 mg/kg/injection, schedule: Q01DX008 (ip), vehicle: saline 95 % of control | dose: 132.0 mg/kg/injection, schedule: Q01DX009 (ip), vehicle: saline 113 % of control | dose: 200.0 mg/kg/injection, schedule: Q01DX008 (ip), vehicle: saline 104 % of control | dose: 200.0 mg/kg/injection, schedule: Q01DX009 (ip), vehicle: saline 109 % of control | dose: 200.0 mg/kg/injection, schedule: Q04DX003 (ip), vehicle: alcohol 100 % of control | [14] 104 % of control | dose: 300.0 mg/kg/injection, schedule: Q01DX008 (ip), vehicle: saline 104 % of control | dose: 300.0 mg/kg/injection, schedule: Q01DX009 (ip), vehicle: saline 113 % of control | dose: 400.0 mg/kg/injection, schedule: Q01DX009 (ip), vehicle: saline 95 % of control | dose: 400.0 mg/kg/injection, schedule: Q04DX003 (ip), vehicle: alcohol 118 % of control | [15] 100 % of control

O=C1C=C(Nc2ccc(O)cc2)c2ccccc2C1=O
inactive: [10] 95 % of control | [11] 104 % of control | [12] 100 % of control

Cn1cc(N)c2ccccc2c1=O
inactive: dose: 50.0 mg/kg/injection, schedule: Q01DX005 (ip), vehicle: suspension in saline 92 % of control | dose: 100.0 mg/kg/injection, schedule: Q01DX005 (ip), vehicle: suspension in saline 120 % of control

CC(C)C(Sc1nc(N)nc2nc[nH]c12)C(=O)O (stereo not drawn)
inactive: [13] 110 % of control | [14] 120 % of control | [15] 105 % of control

COC(=O)C1Cc2c([nH]c3ccccc23)CN1 (stereo not drawn)
inactive: dose: 10.0 mg/kg/injection, schedule: Q01DX009 (ip), vehicle: saline 116 % of control | dose: 10.0 mg/kg/injection, schedule: Q04DX003 (ip), vehicle: saline 95 % of control | dose: 20.0 mg/kg/injection, schedule: Q01DX009 (ip), vehicle: saline 100 % of control | dose: 20.0 mg/kg/injection, schedule: Q04DX003 (ip), vehicle: saline 109 % of control | dose: 40.0 mg/kg/injection, schedule: Q01DX009 (ip), vehicle: saline 112 % of control | dose: 40.0 mg/kg/injection, schedule: Q04DX003 (ip), vehicle: saline 95 % of control

O=[N+]([O-])c1cccc(/C=C/c2ccc(S(=O)(=O)F)cc2)c1
inactive: [7] 95 % of control | [9] 109 % of control | [16] 95 % of control

CN(C)N=Nc1ccc(CCCC(=O)NN)cc1
inactive: dose: 1.56 mg/kg/injection, schedule: Q01DX009 (ip), vehicle: saline with Tween-80 109 % of control | dose: 2.0 mg/kg/injection, schedule: Q01DX009 (ip), vehicle: saline with Tween-80 120 % of control | [2] 92 % of control | dose: 50.0 mg/kg/injection, schedule: Q04DX003 (ip), vehicle: saline sonified 100 % of control | [8] 100 % of control | [13] 115 % of control | [14] 110 % of control

CC(C)C(C(=O)c1ccccc1)c1ccccc1 (stereo not drawn)
inactive: [2] 95 % of control | [3] 109 % of control | [8] 100 % of control | [9] 100 % of control | dose: 200.0 mg/kg/injection, schedule: Q01DX009 (ip), vehicle: saline with Tween-80 100 % of control | [16] 118 % of control | dose: 400.0 mg/kg/injection, schedule: Q01DX009 (ip), vehicle: saline with Tween-80 100 % of control | dose: 400.0 mg/kg/injection, schedule: Q04DX003 (ip), vehicle: saline with Tween-80 100 % of control

CCCCCCCCCCCC1=NCCN1
inactive: dose: 3.13 mg/kg/injection, schedule: Q01DX009 (ip), vehicle: saline with Tween-80 96 % of control | [4] 100 % of control | [1] 104 % of control | [5] 96 % of control

O=C(NO)c1ccc(O)cc1
inactive: [13] 118 % of control | dose: 132.0 mg/kg/injection, schedule: Q04DX003 (ip), vehicle: saline sonified 100 % of control | [14] 100 % of control

CC1C(=O)OC2CC[N+]3([O-])CC=C(COC(=O)C(C)(O)C1(C)O)C23 (stereo not drawn)
inactive: dose: 100.0 mg/kg/injection, schedule: Q01DX010 (ip), vehicle: saline 100 % of control | dose: 400.0 mg/kg/injection, schedule: Q01DX010 (ip), vehicle: saline 110 % of control

C[Si]1(C)CCCSC1
inactive: [1] 89 % of control | [2] 91 % of control | [3] 93 % of control | [8] 103 % of control
